Source: patent publication US20080275029A1, “Compounds for Treating Protein-Kinase Mediated Disorders” (ASTEX THERAPEUTICS LIMITED, priority 2004, published 2008)
pIC50: −log10 of the molar value. Structures can show the parent of a compound that is named as a salt. Where two headings read alike, the source gives them in different places.

Biological target: T1, protein kinase B (PKB), fusion protein PKB-PIF (Homo sapiens, UniProt P31751)
T1 construct: made in house
Experiment: Measurement of PKB kinase inhibitory activity (IC50)
Assay type: biochemical
Description: The inhibition of protein kinase B (PKB) activity by compounds can be determined essentially as described by Andjelkovic et al. (Mol. Cell. Biol. 19, 5061-5072 (1999)) but using a fusion protein described as PKB-PIF and described in full by Yang et al (Nature Structural Biology 9, 940-944 (2002)). […] A final concentration of 0.6 nM enzyme is used in a buffer that includes 20 mM MOPS pH 7.2, 30 μM ATP/γ^33P-ATP and 25 μM substrate. Compounds are added in DMSO solution to a final DMSO concentration of 2.5%. The reaction is allowed to proceed for 20 minutes before addition of excess orthophosphoric acid to quench activity. The reaction mixture is transferred to a phosphocellulose filter plate where the peptide binds and the unused ATP is washed away. After washing, scintillant is added and the incorporated activity measured by scintillation counting.
The % inhibition of the PKB activity is calculated and plotted in order to determine the concentration of test compound required to inhibit 50% of the PKB activity (IC50).

[1] = PKB-PIF activated with PDK1, 30 μM ATP, AKTide-2T substrate, 20 minutes, read-out: IC50 (concentration required to inhibit 50% of the PKB activity)

T1 sequence (P31751 with tags, fused parts or gaps limits assumed): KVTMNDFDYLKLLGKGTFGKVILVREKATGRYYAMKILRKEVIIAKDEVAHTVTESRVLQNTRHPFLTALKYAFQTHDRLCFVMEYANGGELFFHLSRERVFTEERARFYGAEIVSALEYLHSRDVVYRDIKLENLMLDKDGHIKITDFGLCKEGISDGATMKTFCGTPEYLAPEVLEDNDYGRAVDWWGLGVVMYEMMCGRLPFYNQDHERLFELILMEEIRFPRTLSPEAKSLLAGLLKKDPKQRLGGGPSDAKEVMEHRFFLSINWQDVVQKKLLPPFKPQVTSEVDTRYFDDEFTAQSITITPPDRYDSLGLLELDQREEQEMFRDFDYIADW

Row | Compound | pIC50 [1] | pIC50
1 | NCCC(C(=O)Nc1ccc2c(=O)[nH]cnc2c1)c1ccc(Cl)c(Cl)c1 (stereo not shown) [Example 1, 4-Amino-2-(3,4-dichloro-phenyl)-N-(4-oxo-3,4-dihydro-quinazolin-7-yl)-butyramide] | > 5.00 | 
2 | CNCCC(C(=O)Nc1ccc2c(=O)[nH]cnc2c1)c1ccc(Cl)cc1 (stereo not shown) [Example 2, 2-(4-Chloro-phenyl)-4-methylamino-N-(4-oxo-3,4-dihydro-quinazolin-7-yl)-butyramide] | > 5.00 | 
3 | NCCC(NC(=O)c1ccc2c(=O)[nH]cnc2c1)c1ccc(Cl)cc1 (stereo not shown) [Example 3, 4-Oxo-3,4-dihydro-quinazoline-7-carboxylic acid[3-amino-1-(4-chloro-phenyl-propyl]-amide hydrochloride] | > 5.00 | 
4 | O=C(Nc1ccc2c(=O)[nH]cnc2c1)C1(c2ccccc2)CCNCC1 [Example 4, 4-Phenyl-piperidine-4-carboxylic acid (4-oxo-3,4-dihydro-quinazolin-7-yl)-amide] | > 5.00 | 
5 | O=C(NCc1ccc(Cl)cc1)Nc1ccc2c(=O)[nH]cnc2c1 [Example 5, 1-(4-Chloro-benzyl)-3-(4-oxo-3,4-dihydro-quinazolin-7-yl)-urea] | > 5.00 | 
6 | O=C(NCc1ccc(F)cc1)Nc1ccc2c(=O)[nH]cnc2c1 [Example 6, 1-(4-Fluoro-benzyl)-3-(4-oxo-3,4-dihydro-quinazolin-7-yl)-urea] | > 5.00 | 
7 | O=c1[nH]cnc2cc(OCC3(c4ccccc4)CCNCC3)ccc12 [Example 7, 7-(4-Phenyl-piperidin-4-ylmethoxy)-3H-quinazolin-4-one] | > 5.00 | 
8 | O=C(NCc1ccccc1)Nc1ccc2c(=O)[nH]cnc2c1 [Example 8, 1-Benzyl-3-(4-oxo-3,4-dihydro-quinazolin-7-yl)-urea] | > 5.00 | 
9 | NCCCOc1ccc2c(=O)[nH]cnc2c1 [Example 9, 7-(3-Amino-propoxy)-3H-quinazolin-4-one] |  | > 5.00
10 | NCCCc1ccc2c(=O)[nH]cnc2c1 [Example 14, 7-(3-Amino-propyl)-3H-quinazolin-4-one] | > 5.00 | 
11 | N[C@H]1CC[C@H](Nc2ccc3c(=O)[nH]cnc3c2)CC1 [Example 15, 7-(trans-4-Amino-cyclohexylamino)-3H-quinazolin-4-one] | > 5.00 | 
12 | O=c1[nH]cnc2cc(NC3CCNC3)ccc12 (stereo not shown) [Example 16, 7-(Pyrrolidin-3-ylamino)-3H-quinazolin-4-one] |  | > 5.00
13 | NC1CCN(c2ccc3c(=O)[nH]cnc3c2)CC1 [Example 17, 7-(4-Amino-piperidin-1-yl)-3H-quinazolin-4-one] | > 5.00 | 
14 | O=c1[nH]cnc2cc(N3CCNCC3)ccc12 [Example 18, 7-piperazin-1-yl-3H-quinazolin-4-one] |  | > 5.00
15 | O=c1[nH]cnc2cc(N3CCCNCC3)ccc12 [Example 19, 7-[1,4]Diazepan-1-yl-3H-quinazolin-4-one] | > 5.00 | 
16 | O=c1[nH]cnc2cc(NC3CCCNC3)ccc12 (stereo not shown) [Example 20, 7-(Piperidin-3-ylamino)-3H-quinazolin-4-one] | > 5.00 | 
17 | N[C@H]1CC[C@H](Nc2ccc3c(=O)[nH]c(=O)[nH]c3c2)CC1 [Example 21, 7-(4-Amino-cyclohexylamino)-1H-quinazoline-2,4-dione] | > 5.00 | 
18 | CN1CCCN(c2ccc3c(=O)[nH]cnc3c2)CC1 [Example 22, 7-(4-Methyl-[1,4]diazepan-1-yl)-3H-quinazolin-4-one] | > 5.00 | 
19 | CN1CCN(C2CCN(c3ccc4c(=O)[nH]cnc4c3)CC2)CC1 [Example 23, 7-[4-(4-Methyl-piperazin-1-yl)-piperidin-1-yl]-3H-quinazolin-4-one] | > 4.30 | 

Row | Compound | pIC50 [1] | pIC50
20 | O=c1[nH]cnc2cc(N3CCNC(c4ccccc4)C3)ccc12 (stereo not shown) [Example 25] | > 4.30 | 
21 | CN1CCN(c2ccc3c(=O)[nH]cnc3c2)CC1 [Example 26, 7-(4-Methyl-piperazin-1-yl)-3H-quinazolin-4-one] | > 4.30 | 
22 | NCC1(c2ccc(Cl)cc2)CCN(c2ccc3c(=O)[nH]cnc3c2)CC1 [Example 27, 7-[4-Aminomethyl-4-(4-chloro-phenyl)-piperidin-1-yl]-3H-quinazolin-4-one] | > 5.00 | 
23 | NCC[C@H](C(=O)Nc1ccc2c(=O)[nH]cnc2c1)c1ccc(Cl)c(Cl)c1 [Example 28] | > 5.00 | 
24 | NCC[C@@H](C(=O)Nc1ccc2c(=O)[nH]cnc2c1)c1ccc(Cl)c(Cl)c1 [Example 29, (R)-4-Amino-2-(3,4-dichloro-phenyl)-N-(4-oxo-3,4-dihydro-quinazolin-7-yl)butyramide] | > 5.00 | 
25 | O=C(Nc1ccc2c(=O)[nH]cnc2c1)C1(c2ccc(Cl)cc2)CCNCC1 [Example 30, 4-(4-Chloro-phenyl)-piperidine-4-carboxylic acid (4-oxo-3,4-dihydro-quinazolin-7-yl)-amide] | > 5.00 | 
26 | N[C@H]1CC[C@H](Oc2ccc3c(=O)[nH]cnc3c2)CC1 [Example 31, 7-(4-Amino-cyclohexyloxy)-3H-quinazolin-4-one] | > 5.00 | 
27 | O=c1[nH]cnc2cc(NCC3(c4ccc(Cl)cc4)CCNCC3)ccc12 [Example 32, 7-{[4-(4-Chloro-phenyl)-piperidin-4-ylmethyl]-amino}-3H-quinazolin-4-one] | > 5.00 | 
28 | O=c1[nH]cnc2cc(OCC3(c4ccc(Cl)cc4)CCNCC3)ccc12 [Example 33, 7-[4-(4-Chloro-phenyl)-piperidin-4-ylmethoxy]-3H-quinazolin-4-one] | > 5.00 | 
29 | O=c1[nH]cnc2cc(N3CCC(CO)(c4ccc(Cl)cc4)CC3)ccc12 [Example 34, 7-[4-(4-Chloro-phenyl)-4-hydroxymethyl-piperidin-1-yl]-3H-quinazolin-4-one] | > 5.00 | 
30 | Cc1nc2cc(N3CCC(CN)(c4ccc(Cl)cc4)CC3)ccc2c(=O)[nH]1 [Example 35, 7-[4-Aminomethyl-4-(4-chloro-phenyl)-piperidin-1-yl]-2-methyl-3H-quinazolin-4-one] | > 5.00 | 
31 | NC(c1ccc(Cl)cc1)C1CCN(c2ccc3c(=O)[nH]cnc3c2)CC1 (stereo not shown) [Example 36, 7-{4-[Amino-(4-chloro-phenyl)-methyl]-piperidin-1-yl}-3H-quinazolin-4-one] | > 5.00 | 
32 | Cn1c(=O)[nH]c(=O)c2ccc(OCC3(c4ccc(Cl)cc4)CCNCC3)cc21 [Example 37, 7-[4-(4-Chloro-phenyl)-piperidin-4-ylmethoxy]-1-methyl-1H-quinazoline-2,4-dione] | > 5.00 | 
33 | NC1(Cc2ccc(Cl)cc2)CCN(c2ccc3c(=O)[nH]cnc3c2)CC1 [Example 38, 7-[4-Amino-4-(4-chloro-benzyl)-piperidin-1-yl]-3H-quinazolin-4-one] | > 5.00 | 
34 | O=c1[nH]cnc2cc(/C=C/C3(c4ccc(Cl)cc4)CCNCC3)ccc12 [Example 39, 7-{2-[4-(4-Chloro-phenyl)-piperidin-4-yl]-vinyl}-3H-quinazolin-4-one dihydrochloride] | > 5.00 | 
35 | NC1(c2ccc(Cl)cc2)CCN(c2ccc3c(=O)[nH]cnc3c2)CC1 [Example 40, 7-[4-Amino-4-(4-chloro-phenyl)-piperidin-1-yl]-3H-quinazolin-4-one] | > 5.00 | 
36 | NCC1(Cc2ccc(Cl)cc2)CCN(c2ccc3c(=O)[nH]cnc3c2)CC1 [Example 41, 7-[4-Aminomethyl-4-(4-chloro-benzyl)-piperidin-1-yl]-3H-quinazolin-4-one] | > 5.00 | 
37 | Cn1c(=O)[nH]c(=O)c2ccc(N3CCC(CN)(Cc4ccc(Cl)cc4)CC3)cc21 [Example 42, 7-[4-Aminomethyl-4-(4-chloro-benzyl)-piperidin-1-yl]-1-methyl-1H-quinazoline-2,4-dione] | > 5.00 | 
